Common to all, as to format: functional
Assay [1] concerns Candida albicans. Kind of assay: 50% inhibitory activity against Candida albicans (40 clinical isolates) determined at pH-5.8.
In assay [2] the test system is Candida. Kind of assay: Resistance against all Candida. species (40 clinical isolates) at 256 micro g/mL (pH=5.8). Activity is expressed as R%.
In assay [3] the test system is Candida. The assay can be described thus: Inhibitory activity against Candida. species. (40 clinical isolates), determined at pH-7.2.
Assay [4] relates to Candida albicans. The assay can be described thus: Inhibitory activity against the Candida albicans (40 clinical isolates), determined at pH-7.2.
Assay [5] concerns Candida. Kind of assay: 50% inhibitory activity against the Candida. species (40 clinical isolates) was determined at pH-7.2.
In assay [6] the test system is Candida albicans. The assay can be described thus: Resistance against Candida. albicans (40 clinical isolates) at 256 ug/mL (pH=7.2), activity is expressed as R%.
The subject of assay [7] is Candida. Kind of assay: 90% inhibitory activity against Candida. species (40 clinical isolates) determined at pH-7.2.
The test system of assay [8] is Candida albicans. The assay can be described thus: Inhibitory activity against Candida albicans (40 clinical isolates), determined at pH-5.8.
Assay [9] relates to Candida albicans. The assay can be described thus: 50% inhibitory activity against Candida albicans (40 clinical isolates) determined at pH-7.2.
In assay [10] the test system is Candida. The assay can be described thus: Inhibitory activity against Candida. species (40 clinical isolates), determined at pH-5.8.
Assay [11] deals with Candida. Kind of assay: Percent resistance against all Candida. species (40 clinical isolates) at 256 micro g/mL (pH=7.2), activity is expressed as R%.
In assay [12] the test system is Candida albicans. Kind of assay: Percent resistance against Candida albicans (40 clinical isolates) at 256 micro g/mL (pH=5.8), activity is expressed as R%.
The subject of assay [13] is Candida albicans. Kind of assay: Inhibitory activity against the Candida albicans (40 clinical isolates), determined at pH-5.8.
For assay [14], the system named is Candida. Kind of assay: Inhibitory activity against Candida. species. (40 clinical isolates), determined at pH-5.8.
Assay [15] has as its system Candida albicans. Kind of assay: Inhibitory activity against Candida albicans (40 clinical isolates), determined at pH-7.2.
Assay [16] relates to Candida. Kind of assay: The compound was tested for percent resistance against all Candida. species (40 clinical isolates) at 256 ug/mL (pH=7.2), activity is expressed as R%.
Assay [17] concerns Candida. Kind of assay: The compound was tested for percent resistance against all Candida. species (40 clinical isolates) at 256 ug/mL (pH=5.8), activity is expressed as R%.
For assay [18], the system named is Candida. The assay can be described thus: Inhibitory activity against the Candida. species. (40 clinical isolates) was determined at pH-7.2.
Assay [19] relates to Candida. The assay can be described thus: 90% inhibitory activity against the Candida. species (40 clinical isolates) was determined at pH-7.2.
The mark [20] stands for this setting: Candida albicans, read-out: MIC50.

The structures appear in SMILES notation. ≈ marks a conversion by molar mass, not a printed value. Some results are limits rather than exact numbers.

With `O=[N+]([O-])c1ccc(C(c2c[nH]cc2-c2ccc(Cl)cc2Cl)n2ccnc2)cc1` (stereo unspecified), the MIC50 (in general, the lowest concentration that inhibits either 50% of growth or 50% of the strains tested, depending on the study) against Candida albicans [1] is 16 µg/mL (≈ 38.7 µM); against Candida [5] it was 256 µg/mL (≈ 619 µM); in the assay on Candida albicans [9] (setting [20]), 32 µg/mL (≈ 77.4 µM); in the assay with Candida [10] it was 32 µg/mL (≈ 77.4 µM). The R in the assay on Candida [2] was 0%; with Candida albicans [6], 0%; with Candida [11] it was 30%; with Candida albicans [12] it was 0%. Further, the MIC (in general, the least concentration at which growth counts as inhibited) is greater than 207 µg/mL against Candida [3], 22.9 µg/mL (≈ 55.4 µM) in the assay on Candida albicans [8], 30.2 µg/mL (≈ 73.1 µM) against Candida [14] and 38.5 µg/mL (≈ 93.2 µM) in the assay with Candida albicans [15]. The MIC90 – broadly, an inhibitory concentration at the 90% level, which refers to growth in some studies and to a panel of isolates in others – is 64 µg/mL (≈ 155 µM) with Candida albicans [4], greater than 256 µg/mL with Candida [7], 32 µg/mL (≈ 77.4 µM) against Candida [10] and 64 µg/mL (≈ 155 µM) in the assay with Candida albicans [13].
As to `Cc1ccc(C(c2c[nH]cc2-c2ccccc2Cl)n2ccnc2)cc1` (stereo unspecified), the MIC50 against Candida albicans [1] was 32 µg/mL (≈ 92 µM); in the assay on Candida [5] it was 32 µg/mL (≈ 92 µM); in the assay with Candida albicans [9] (setting [20]) it was 4 µg/mL (≈ 11.5 µM); against Candida [10], 32 µg/mL (≈ 92 µM). Also, the R in the assay with Candida [2], with Candida albicans [6], with Candida [11] and in the assay on Candida albicans [12] was 0% throughout. Moreover, the minimum inhibitory concentration (MIC) with Candida [3] was found to be 30.1 µg/mL (≈ 86.5 µM); in the assay on Candida albicans [8], 35.4 µg/mL (≈ 102 µM); in the assay on Candida [14], 41.7 µg/mL (≈ 120 µM); with Candida albicans [15], 13.2 µg/mL (≈ 37.9 µM). The MIC90 in the assay with Candida albicans [4] turned out to be 64 µg/mL (≈ 184 µM); against Candida [7] it was 32 µg/mL (≈ 92 µM); with Candida [10], 64 µg/mL (≈ 184 µM); with Candida albicans [13], 64 µg/mL (≈ 184 µM).
On to `c1ccc(-c2c[nH]cc2C(c2ccccc2)n2ccnc2)cc1` (stereo unspecified), for which the MIC50 in the assay with Candida albicans [1] was 32 µg/mL (≈ 107 µM); against Candida [5], greater than 256 µg/mL; with Candida albicans [9] (setting [20]), 32 µg/mL (≈ 107 µM); in the assay on Candida [10], 128 µg/mL (≈ 428 µM). Further, the R was 75% in the assay with Candida [16], 2.7% in the assay on Candida albicans [6], 0% in the assay on Candida [17] and 0% in the assay on Candida albicans [12]. The MIC90 against Candida albicans [4] was 64 µg/mL (≈ 214 µM); against Candida [10], 128 µg/mL (≈ 428 µM); in the assay with Candida albicans [13] it was 128 µg/mL (≈ 428 µM); against Candida [19], greater than 256 µg/mL. The MIC against Candida albicans [8] is 53.9 µg/mL (≈ 180 µM); in the assay with Candida [18] it was greater than 396 µg/mL; in the assay with Candida [14], 88 µg/mL (≈ 294 µM); in the assay with Candida albicans [15], greater than 35.4 µg/mL.
Consider `Fc1ccc(C(c2c[nH]cc2-c2ccccc2)n2ccnc2)cc1` (stereo unspecified), for which the R in the assay with Candida [2], in the assay with Candida albicans [6], in the assay on Candida [11] and in the assay on Candida albicans [12] was 0% each time. The MIC amounted to 74.5 µg/mL (≈ 235 µM) against Candida [3], 71.2 µg/mL (≈ 224 µM) against Candida albicans [8], 99.5 µg/mL (≈ 314 µM) in the assay on Candida [14] and 55.1 µg/mL (≈ 174 µM) in the assay on Candida albicans [15]. Also, the MIC90 against Candida albicans [4] was found to be 64 µg/mL (≈ 202 µM); against Candida [10], 128 µg/mL (≈ 403 µM); in the assay with Candida albicans [13], 128 µg/mL (≈ 403 µM); against Candida [19], 128 µg/mL (≈ 403 µM). Also, the MIC50 against Candida [5] is 64 µg/mL (≈ 202 µM); with Candida albicans [9], 64 µg/mL (≈ 202 µM); in the assay on Candida albicans [9] (setting [20]) it was 32 µg/mL (≈ 101 µM); against Candida [10] it was 64 µg/mL (≈ 202 µM).
`Cc1ccc(C(c2c[nH]cc2-c2ccccc2)n2ccnc2)cc1` (stereo unspecified): the R in the assay on Candida [2], in the assay with Candida albicans [6], with Candida [11] and in the assay with Candida albicans [12] was 0% throughout. Also, the MIC was determined as 51.6 µg/mL (≈ 165 µM) against Candida [3], 133 µg/mL (≈ 425 µM) with Candida albicans [8], 71 µg/mL (≈ 227 µM) in the assay on Candida [14] and 48.4 µg/mL (≈ 154 µM) against Candida albicans [15]. Also, the MIC90 was 64 µg/mL (≈ 204 µM) with Candida albicans [4], 256 µg/mL (≈ 817 µM) against Candida [10], 256 µg/mL (≈ 817 µM) against Candida albicans [13] and 64 µg/mL (≈ 204 µM) against Candida [19]. In addition, the MIC50 was 64 µg/mL (≈ 204 µM) in the assay with Candida [5], 64 µg/mL (≈ 204 µM) against Candida albicans [9], 32 µg/mL (≈ 102 µM) in the assay on Candida albicans [9] (setting [20]) and 64 µg/mL (≈ 204 µM) in the assay with Candida [10].
In the case of `O=[N+]([O-])c1ccc(C(c2c[nH]cc2-c2ccccc2)n2ccnc2)cc1` (stereo unspecified), the MIC50 with Candida albicans [1] came out at 8 µg/mL (≈ 23.2 µM); against Candida [5] it was 256 µg/mL (≈ 743 µM); in the assay on Candida albicans [9] (setting [20]), 8 µg/mL (≈ 23.2 µM); with Candida [10] it was 128 µg/mL (≈ 372 µM). In addition, the R in the assay on Candida [2] turned out to be 0%; with Candida albicans [6], 0%; in the assay on Candida [11] it was 20%; with Candida albicans [12], 0%. Moreover, the MIC was greater than 192 µg/mL against Candida [3], 56.7 µg/mL (≈ 165 µM) with Candida albicans [8], 182 µg/mL (≈ 529 µM) with Candida [14] and 5.18 µg/mL (≈ 15 µM) with Candida albicans [15]. Moreover, the MIC90 in the assay with Candida albicans [4] was 64 µg/mL (≈ 186 µM); in the assay on Candida [10], greater than 256 µg/mL; with Candida albicans [13], 128 µg/mL (≈ 372 µM); in the assay on Candida [19], 256 µg/mL (≈ 743 µM).

Source of the values: ChEMBL document CHEMBL1128323, “Antifungal agents. 9. 3-Aryl-4-[alpha-(1H-imidazol-1-yl)arylmethyl]pyrroles: a new class of potent anti-Candida agents” (1995).
